Source: ChEMBL document CHEMBL6103654, “Design, Biological Characterization, and Discovery of Capromorelin Derivatives as Oral Growth Hormone Secretagogue Receptor Type 1a Agonist for the Treatment of Growth Hormone Deficiency” (J Med Chem, 2025)

Columns and labels:
Rattus norvegicus [1] = test: Induction of growth hormone level in Juvenile Sprague-Dawley rat blood at 10 mg/kg, po administered as single dose measured after 4 hrs by ELISA method (reference value: 32.5+/-4.5 ng/mL); format: functional
Rattus norvegicus [2] = test: Induction of growth hormone level in Juvenile Sprague-Dawley rat blood by measuring AUC(0 to 40 mins) at 10 mg/kg, po administered as single dose by ELISA method (reference value: 20.2+/-4.3 ng/mL); format: functional, organism-based
Rattus norvegicus [3] = test: Induction of growth hormone level in adult Sprague-Dawley rat blood at 10 mg/kg, po administered as single dose measured after 20 mins by ELISA method (reference value: 4.9+/-1.1 ng/mL); format: functional
Rattus norvegicus [4] = test: Induction of growth hormone level in adult Sprague-Dawley rat blood at 10 mg/kg, po administered as single dose measured after 40 mins by ELISA method (reference value: 14.4+/-6.9 ng/mL); format: functional
Rattus norvegicus [5] = test: Induction of growth hormone level in Juvenile Sprague-Dawley rat blood at 10 mg/kg, po administered as single dose measured after 20 mins by ELISA method (reference value: 29.1+/-8.6 ng/mL); format: functional
Rattus norvegicus [6] = test: Induction of growth hormone level in adult Sprague-Dawley rat blood at 10 mg/kg, po administered as single dose measured after 10 mins by ELISA method (reference value: 13.7+/-7.2 ng/mL); format: functional
Rattus norvegicus [7] = test: Induction of growth hormone level in Juvenile Sprague-Dawley rat blood at 10 mg/kg, po administered as single dose measured after 10 mins by ELISA method (reference value: 23.2+/-5.6 ng/mL); format: functional
Rattus norvegicus [8] = test: Induction of growth hormone level in Juvenile Sprague-Dawley rat blood at 10 mg/kg, po administered as single dose measured after 40 mins by ELISA method (reference value: 40.1+/-11.0 ng/mL); format: functional
Rattus norvegicus [9] = test: Induction of growth hormone level in Juvenile Sprague-Dawley rat blood at 10 mg/kg, po administered as single dose measured after 2 hrs by ELISA method (reference value: 26.5+/-7.3 ng/mL); format: functional
Rattus norvegicus [10] = test: Induction of growth hormone level in adult Sprague-Dawley rat blood by measuring AUC(0 to 40 mins) at 10 mg/kg, po administered as single dose by ELISA method (reference value: 7.0+/-1.7 ng/mL); format: functional, organism-based
Rattus norvegicus [11] = test: Induction of growth hormone level in adult Sprague-Dawley rat blood at 10 mg/kg, po administered as single dose measured immediately by ELISA method (reference value: 12.6+/-4.4 ng/mL); format: functional
Rattus norvegicus [12] = test: Induction of growth hormone level in Juvenile Sprague-Dawley rat blood at 10 mg/kg, po administered as single dose measured after 1 hr by ELISA method (reference value: 45.2+/-12.5 ng/mL); format: functional
Rattus norvegicus [13] = test: Induction of growth hormone level in Juvenile Sprague-Dawley rat blood at 10 mg/kg, po administered as single dose measured immediately by ELISA method (reference value: 28.5+/-8.7 ng/mL); format: functional

With `CC(C)(N)C(=O)N[C@H](COCc1ccccc1)C(=O)N1CCC2(CC1)CN(S(C)(=O)=O)c1ccccc12` [IBUTAMOREN] the Activity (Rattus norvegicus [1]) was 61.3 ng/mL, the AUC (Rattus norvegicus [2]) was 123 ng·h/mL and the Activity (Rattus norvegicus [3]) was 71.3 ng/mL. For the same compound, the Activity (Rattus norvegicus [4]) was 25 ng/mL, the Activity (Rattus norvegicus [5]) was 227.8 ng/mL and the Activity (Rattus norvegicus [6]) was 133.9 ng/mL. The Activity (Rattus norvegicus [7]) was 290.9 ng/mL, the Activity (Rattus norvegicus [8]) was 76.3 ng/mL and the Activity (Rattus norvegicus [9]) was 52.4 ng/mL. For the same compound, the AUC (Rattus norvegicus [10]) was 45.6 ng·h/mL, the Activity (Rattus norvegicus [11]) was 15.4 ng/mL and the Activity (Rattus norvegicus [12]) was 76.2 ng/mL. For the same compound, the Activity (Rattus norvegicus [13]) was 58.1 ng/mL.
